Source: patent US20230218714A1, “DIAGNOSTICS AND USE OF QUORUM SENSING MOLECULES IN MUSCLE WASTING” (Universiteit Gent, priority 2019, published 2023)
Where “and” joins values, the source holds several entries; their conditions need not be identical. Identical values can stand only once. Entries after “also recorded” stand apart in the source; their conditions may differ. Where no end group is shown, it is not given here.

Tests used:
C2C12 cells [1] = experiment: Co-treatment of C2C12 cells with QSP and ala-scan derivative, IL-6 response; type: cell-based, mouse; details: Q176 50 μM plus derivative 60 μM
Description: (§1) Means±SEM, n=6. * P<0.05; ** P<0.01, *** P<0.001; paired Student's t test.

C2C12 cells [2] = experiment: Co-treatment of C2C12 cells with Q176 and ala-scan derivative, MTT response; type: cell-based, mouse; details: Q176 50 μM plus derivative 60 μM
Description: as §1

[3] = tested on: IL-6 production by C2C12 myotubes; experiment: IL-6 production by C2C12 myotubes (sandwich ELISA); type: cell-based, mouse; details: for Effect: inflammation (IL-6 production, hit direction): screening at 1 μM
Procedure: C2C12 myoblasts (2.5×10^4 cells/well) were seeded in 96-well plates and incubated until they reached 80% confluency, after which the proliferation medium was removed and replaced by differentiation medium. After 6 days of incubation with daily renewed differentiation medium, the cells were treated with 1 μM of QSM, placebo or positive control (LPS) for 24 hours. IL-6 levels were determined in the supernatants using a sandwich ELISA (eBioscience), using IL-6 capture antibody, blocking solution, samples and standards, IL-6 detection antibody, avidin-horseradish peroxidase and substrate solution which were added sequentially, with washing steps in between. After stopping the reaction with H2SO4 solution, the absorbance was measured at 450 nm and 570 nm (correction wavelength) using a microplate reader (ThermoLab Systems). Concentrations were determined using the standard curves generated with known concentrations of IL-6.
Several pro-inflammatory cytokines are elevated in sepsis, cancer, ageing and other catabolic diseases. They are thought to trigger muscle wasting (partly) through NF-kB pathways. […] In these screening experiments, the effects of QSM on myotube IL-6 production were assessed using a sandwich ELISA.
(§2) In a further set of experiments, using similar methods as described for the screening experiments, a number of QSPs were tested for a dose response relation in C2C12 cells.

human muscle cells [4] = experiment: IL-6 production dose response in human muscle cells; type: cell-based; details: FIG. 12
Procedure: (§3) Differentiation medium consisted of high glucose Glutamax DMEM supplemented with penicillin (100 units/ml), streptomycin (100 μg/ml) and insulin (10 μg/mL).
(§4) Using similar methods as described for the C2C12 experiments, a number of QSPs were tested for a dose response relation in human muscle cells.

[5] = tested on: GDF15 production by C2C12 myotubes; experiment: GDF15 production by C2C12 myotubes (sandwich ELISA), mitochondrial changes; type: cell-based, mouse; details: QSM 1 μM, C2C12 myotubes
Procedure: GDF15 levels were determined in the supernatants of C2C12 cells after QSM, placebo or positive control (oligomyin) treatment, using a sandwich ELISA (R&D Systems). A similar protocol as described for the IL-6 determination was used.
GDF15 is considered a useful biomarker for direct or indirect changes in mitochondrial function. Moreover, GDF15 is implicated in muscle wasting diseases like sarcopenia, chronic obstructive pulmonary disease cachexia and critical illness.

[6] = tested on: atrogin, MuRF1, caspase 3 and atg7; experiment: Protein degradation gene expression in C2C12 cells (RT-qPCR); type: cell-based, mouse
Procedure: C2C12 cells were seeded in 6-well (4×10^5 cells/well) or 12-well plates (1.5×10^5 cells/well). […] Thereafter, cells were scraped off from the well surface and resuspended in RLT lysis buffer (Qiagen). RNA was extracted from these lysed cells using RNeasy micro columns (Qiagen). Subsequently, RNA was reverse-transcribed using a mix of oligo-dT and random primers together with Quantiscript reverse transcriptase (Qiagen). DNAse steps were included in the protocol to remove possible DNA contamination. Real-time PCR was performed starting with 7.5 ng cDNA and both sense and antisense oligonucleotides in a final volume of 8 μl in a 384-well plate using the SensiMix SYBR green PCR master mix (Bioline). The following genes were analysed: atrogin, MuRF1, caspase 3 and atg7.
The second derivative method was used to determine the threshold or Cq values, with analysis of Ppia (Peptidylprolyl isomerase A), Rer (Rhodopsin enhancer region) and Hprt (Hypoxanthine-guanine phosphoribosyltransferase) mRNA to normalize gene expression (delta Cq method). […]
To screen the possible effects of 75 QSM on these 3 proteolysis systems, mRNA transcripts of the following representative genes were measured: atrogin and MuRF1 (UPS), caspase 3 (apoptosis system) and autophagy-related protein 7 (autophagy system). […]

C2C12 myoblasts = experiment: MTT cell viability assay in C2C12 myoblasts
Procedure: The mouse myoblast C2C12 cell line (ATCC, CRL-1772) was cultured at 37° C. in a 5% CO2 humidified incubator in Dulbecco's modified Eagle medium (DMEM; Thermo Fisher Scientific). For C2C12 cell proliferation, the medium was supplemented with 10% fetal bovine serum (FBS; Thermo Fisher Scientific), 100 units/ml penicillin, and 100 μg/ml streptomycin (1% Pen/Strep; Thermo Fisher Scientific). The proliferation medium was renewed each 2-3 days and confluency was kept below 80%. For differentiation of the C2C12 myoblasts into myotubes, proliferation medium was replaced by differentiation medium when cells reached 80% confluency.
Viability of QSM was assessed using the 3-(4,5-dimethylthiazol-2-yl)-2,5-diphenyltetrazolium bromide (MTT) assay. Briefly, C2C12 myoblasts were seeded in a 96-well plate (3×10^4 cells/well). 24 hours post-seeding, the wells were treated with QSM (1 μM), placebo or positive control (DMSO 2%) and incubated for 24 hours at 37° C. Next, 20 μL of MTT reagent (5 mg/mL; Sigma-Aldrich) was added to each well and the plates were returned to the incubator for 2.5 hours. After incubation, supernatant was removed from the wells and 150 μL of DMSO was added to release and dissolve the formazan crystals. Absorbance was measured at 570 nm using a microplate reader (Thermo Fisher).
The MTT assay is a widely validated and accepted viability assay for screening experiments. In this assay, the reduction of MTT into formazan, catalysed by living cell enzymes, is used as a marker of cell viability. If QSM are cytotoxic or cytostatic towards C2C12 cells, a decrease in MTT reduction is expected (viability less than 100%), while an increased C2C12 proliferation caused by QSM will result in an increased MTT reduction (viability more than 100%).
In a further set of experiments, the dose response effect of QSPs Q22 and Q184 was assessed on MTT reduction of C2C12 myotubes (tables 7.4 and 7.5).

C2C12 myotubes = experiment: MTT reduction dose response in C2C12 myotubes; type: cell-based, mouse
Procedure: as §2

C. elegans = C. elegans swimming behaviour (muscle wasting/aging model); type: in vivo; design: key to Wave initiation rate / Asymmetry / Stretch / Curling / Travel speed / Brush stroke / Activity index: relative to placebo set to 1.0; details: for muscle wasting / aging muscle phenotype in C. elegans: QSP in medium (1 μM; QSP022 also 10 μM), swimming parameters; for Activity index / Asymmetry / Body wave number / Brush stroke / Curling / Stretch / Travel speed / Wave initiation rate: DMSO positive control
Description: The C. elegans model is a well-established aging model: they diminish in locomotory vigor as they age, a phenomenon that is attributed to a physical deterioration of muscle and synapses. QSPs were introduced in the medium of living C. elegans. As comparisons, a placebo experiment was used as negative control, while DMSO was used as positive control.
Using automatic, objective imaging software, different swimming behaviour variables associated with this decrease in locomotory vigor or muscle wasting were investigated. Wave initiation rate, travel speed, brush stroke and activity index do decrease with muscle wasting, while body wave number, asymmetry, curling and stretch do increase with muscle wasting, as described in Restif et al., Plos Computational Biology, 2014.
More in particular, the results in these tables show Q184-associated changes in three swimming parameters in wild-type adults at day 3 (Table 9) and day 12 (Table 10) (n=120-170 from 3 independent trials for each condition). Data presented are means±s.e.m (placebo set to 1.0).

human muscle cells [7] = experiment: MTT reduction dose response in human muscle cells; type: cell-based; details: FIG. 9
Procedure: as §3, §4

[8] = C. elegans medium, 1 μM during 12 days
[9] = day 3, placebo set to 1.0, Q184 at 1 μM
[10] = day 12, placebo set to 1.0, Q184 at 1 μM

Substance: GSLSTFFRLFNASFTQALGK (Synthetic Q176-A13)
- effect on Q176 mediated IL-6 induction (C2C12 cells [1]): inhibiting the Q176 mediated IL-6 induction
- effect on Q176 mediated IL-6 induction (C2C12 cells [1]; listed as QSP176-A13): clearly abolishes both effects
- effect on Q176 mediated MTT effect (C2C12 cells [2]): inhibiting the Q176 mediated MTT effect
- effect on Q176 mediated MTT effect (C2C12 cells [2]; listed as QSP176-A13): clearly abolishes both effects

Substance: KSSAYSLQMGATAIKQVKKLFKKWGW [Q125]
- relative IL-6 production ([3]; QSM 1 μM, 24 h, relative to median of all QSM): 171%
- Relative IL-6 ([3]; concentration 0.20 μM): 0.89
- Relative IL-6 ([3]; concentration 0.39 μM): 0.90
- Relative IL-6 ([3]; concentration 1.56 μM): 1.28
- Relative IL-6 ([3]; concentration 3.13 μM): 1.96
- Relative IL-6 ([3]; concentration 6.25 μM): 2.08
- Relative IL-6 ([3]; concentration 12.5 μM): 4.89
- Relative IL-6 ([3]; concentration 25 μM): 5.55
- Relative IL-6 ([3]; concentration 50 μM): 8.23
- Relative IL-6 ([3]; concentration 100 μM): 9.80
- Effect: inflammation (IL-6 production, hit direction) [3]: increased IL-6 production; also recorded: ↑ inflammation
- dose response relation, IL6 production (human muscle cells [4]): Typical curves were obtained

Substance: NEVPFEF [Q146]
- GDF15 secretion, effect relative to median [5]: 80%
- decrease in MuRF1 gene expression compared to placebo ([6]; QSM 1 μM, 24 h, individual screening): ~20% and 20%
- Effect: proteolysis (hit direction) ([6]; screening at 1 μM): ↓ proteolysis

Substance: SGSLSTFFRLFNRSFTQALGK [Q176]
- Relative IL-6 ([3]; concentration 0.20 μM): 1.00
- Relative IL-6 ([3]; concentration 0.39 μM): 0.89
- Relative IL-6 ([3]; concentration 1.56 μM): 1.53
- Relative IL-6 ([3]; concentration 3.13 μM): 1.61
- Relative IL-6 ([3]; concentration 6.25 μM): 2.39
- Relative IL-6 ([3]; concentration 12.5 μM): 3.24
- Relative IL-6 ([3]; concentration 25 μM): 3.49
- Relative IL-6 ([3]; concentration 50 μM): 5.81
- Relative IL-6 ([3]; concentration 100 μM): 6.01
- Effect: inflammation (IL-6 production, hit direction) [3]: increased IL-6 production; also recorded: ↑ inflammation
- dose response relation, IL6 production (human muscle cells [4]): Typical curves were obtained

Substance: SIFTLVA [Q184, SIFTLVA]
- Imax (relative MTT) (C2C12 myoblasts; Blasts): 0.63 relative MTT
- IC10 (C2C12 myoblasts; MTT, Blasts): 0.40 µM
- IC50 (C2C12 myoblasts; MTT, Blasts): 1.49 µM
- Effect: viability (hit direction) (C2C12 myoblasts; screening at 1 μM, hit selection by MAD/quartile/SSMD/robust SSMD): decreasing viability hits
- IC10 (C2C12 myotubes; MTT, Tubes): 0.01 µM
- IC50 (C2C12 myotubes; MTT, Tubes): 0.06 µM
- Imax (relative MTT) (C2C12 myotubes; Tubes): 0.48 relative MTT
- Relative MTT (C2C12 myotubes; concentration 0.10 μM): 0.68
- Relative MTT (C2C12 myotubes; concentration 0.50 μM): 0.60
- Relative MTT (C2C12 myotubes; concentration 1.00 μM): 0.56
- Relative MTT (C2C12 myotubes; concentration 5.00 μM): 0.49
- Relative MTT (C2C12 myotubes; concentration 10 μM): 0.49
- muscle wasting / aging muscle phenotype in C. elegans (C. elegans): induced a muscle wasting phenotype; also recorded: muscle wasting effects; also recorded: inducing a muscle wasting phenotype
- muscle wasting / aging muscle phenotype in C. elegans (C. elegans; listed as QSP184): induces an aging muscle phenotype
- Activity index (C. elegans; [9]): 0.82
- Asymmetry (C. elegans; [9]): 1.10
- Body wave number (C. elegans; [9]): 1.01
- Brush stroke (C. elegans; [9]): 0.87
- Curling (C. elegans; [9]): 0.92
- Stretch (C. elegans; [9]): 1.03
- Travel speed (C. elegans; [9]): 0.55
- Wave initiation rate (C. elegans; [9]): 0.90
- Activity index (C. elegans; [10]): 0.85
- Asymmetry (C. elegans; [10]): 1.37
- Body wave number (C. elegans; [10]): 1.29
- Brush stroke (C. elegans; [10]): 0.89
- Curling (C. elegans; [10]): 1.50
- Stretch (C. elegans; [10]): 1.06
- Travel speed (C. elegans; [10]): 0.81
- Wave initiation rate (C. elegans; [10]): 0.84
- dose response relation, MTT reduction (human muscle cells [7]): Typical curves were obtained
- stability in the medium [8]: high stability
